Test results reported in publication PMC12593965, “Determination of Retention Behavior and pK a Values of Some Phenothiazines with Green Chemistry Approach” (ACS Omega, 2025).
Where two headings read alike, the source gives them in different places.

Experiments:
[1] = source not stated; cited from earlier work
[2] = RPLC determination of sspKa in EtOH-water binary mixtures (green RPLC); type: physicochemical; settings: standard deviation in parentheses
Experimental: (§1) The analysis of the compounds on the HPLC column was determined in binary mixtures of ACN–water and EtOH–water containing 50, 55, and 60% (v/v) organic solvents at varying pH values (5.5–11.5). Buffer compounds containing 30 mM o-H3PO4 and NH4Cl at the same concentration were used in the mobile phases according to the pH values at which the buffers were effective.
(§2) The pH value of the mobile phase was adjusted by adding a 1 M NaOH solution to the mobile phase containing o-H3PO4 and by adding concentrated NH3 solution to the mobile phase containing ammonium chloride. The pH values of the binary mixtures in this mobile phase were evaluated according to the International Union of Pure and Applied Chemistry (IUPAC) guideline, taking into account the reference pH values obtained from the National Institute of Standards and Technology (NIST). − KHP (0.05 mol/kg) was used as a reference standard for electrode calibration in hydroorganic mixtures. The pH value (pHx) of this hydroorganic mixture can be determined by eq . pHx=pHs+Es−Ex/(ln10)RT/F 1
(§3) Solutions of the investigated compounds in binary mixtures were prepared daily. Standard solutions at 100 μg/mL concentrations were prepared in the studied mobile phase. Fresh solutions were prepared daily and stored at +4 °C in the dark until analysis. For testing, a 20 μL sample was injected three times into the HPLC instrument. The average t R was calculated from these replicates, showing precision with a relative standard deviation (%RSD) of approximately 0.01.
(§4) This liquid chromatographic study was performed at 25 and 37 °C. Chromatographic determination of the compounds was performed on a Kinetex EVO C18 (Phenomenex, 150 × 4.6 mm ID, 5 μm) core–shell column at a constant flow rate of 1 mL/min. There are no data in the literature regarding the determination of the retention behavior of compounds by analysis with HPLC columns produced with the core–shell technique. Additionally, the theoretical plate number of the column being 2000 and above and the tailing factor being below 2 indicate optimum column performance and satisfactory peak symmetry.
(§5) The t R values of promethazine, promazine, and trimeprazine for the study on the HPLC column were determined by using the RPLC method at different pH values in binary mixtures. The s ^spK a values of the ionizable and molecular forms (BH^+, B) were calculated using the nonlinear regression program (NLREG).
(§6) The intrinsic t R (t RBH^+ , t RB) and s ^spK a values of the studied compounds were calculated in the NLREG program using the average t R values determined depending on the changing EtOH and ACN concentrations and pH values in the mobile phase. It is seen that the standard deviation values of the sigmoidal fitting parameters (t RBH^+ , t RB, and s ^spK a) given in Table are very small. Since good results were obtained by using the t R value directly, the k value was not used. Although the changes in s ^spK a values according to the solvent composition in the mobile phase used were different for each compound, the same type of sigmoidal behavior was obtained as in Figure . The s ^spK a of basic compounds decreases mainly due to electrostatic interactions that contribute to the pK a value. Since ACN (0.46) and EtOH (0.65) have lower relative polarity compared to water (1.00), the solute–solvent polar interaction decreases as the amount of organic solvent in the mobile phase increases. Therefore, the t R value increases as the pH value of the mobile phase increases, while the t R value decreases as the amount of organic solvents in the mobile phase increases. In the mobile phase rich in ACN (0.25 ≤ X ACN ≤ 0.33) and EtOH (0.26 ≤ X EtOH ≤ 0.35), preferential solvation with water exists, and this can explain the decrease in the s ^spK a values of the studied compounds when the amount of organic solvent in the mobile phase increases. ,

[3] = Aqueous pKa (wwpKa) calculated from sspKa via X solvent - sspKa and 1/ε - sspKa linear relationships; type: physicochemical; settings: for wwpKa, 1/εACN - sspKa approach / wwpKa, X ACN - sspKa approach: from ACN-water data; for wwpKa, 1/εEtOH - sspKa approach / wwpKa, X EtOH - sspKa approach: from EtOH-water data
Experimental: The w ^wpK a values of promethazine, promazine, and trimeprazine in a water medium were determined by evaluating the obtained s ^spK a values of the compounds with the X solvent – s ^spK a , and the reciprocal of the solvent’s dielectric constant (1/ε) – s ^spK a relationships.
In this study, the w ^wpK a values of the examined compounds were determined based on the mole fraction of solvent-s ^spK a (X solvent – s ^spK a) and 1/εsolvent – s ^spK a approaches. In the calculation using the solvent mole fraction, the intercept values of the equation obtained from the linear relationship between the organic solvent X solvent and s ^spK a give the w ^wpK a values of the compounds examined.
To confirm the computed w ^wpK a values, an alternative approach was employed. Within the scope of the study, the correlation between the inverse of the dielectric constant value of the organic solvent (1/ε) and the s ^spK a values of the compounds was utilized. Since the ε values depend on the temperature, these values were taken from Gagliardi et al. and Navarkhele and Navarkhele for the two temperatures under study. , In the obtained linear equations, ε values in the water environment were used for increasing temperatures, and w ^wpK a values for the compounds could be determined. There was a decrease in the dielectric constant with the decrease in solvent polarity.
Figure illustrates the linear relationship between the solvent’s macroscopic constant X solvent and s ^spK a values.

[4] = RPLC determination of sspKa in ACN-water binary mixtures (conventional RPLC); type: physicochemical; settings: standard deviation in parentheses
Experimental: as §1, §2, §3, §4, §5, §6

[5] = Percent ionization of the basic functional group by Henderson-Hasselbach equation; type: physicochemical; settings: from wwpKa at 37 °C (EtOH-water)
Description: Drug molecules can ionize at different pH ranges, and the pK a value serves as a universal measure of ionization. […] Changing the ionic form of a drug can affect its action, absorption, and therapeutic efficacy depending on the pH of the medium. Therefore, evaluating the degree of ionization of the compounds selected in this study is crucial. Using the Henderson–Hasselbach equation, the percent ionization and pK a (at 50% ionization) of the basic functional group of each compound at different pH values were calculated (Figure S4). Since a green chemistry approach was preferred in this study, the w ^wpK a values at 37 °C, determined from data obtained from an EtOH-water binary mixture, were used in the calculation of the percentage ionization. […] At a pH value 2 pH units above the pK a, the basic compound is in its un-ionized form. It is known that the hydrophilic properties of compounds decrease as the alkyl chain length increases. According to the data in Table S2, the percentage ionization values increase as the alkyl chain length increases.

[6] = cited from earlier work

| sspKa ([2]; 50% (v/v) EtOH-water, 25 °C) | sspKa ([2]; 50% (v/v) EtOH-water, 37 °C) | sspKa ([2]; 55% (v/v) EtOH-water, 25 °C) | sspKa ([2]; 55% (v/v) EtOH-water, 37 °C) | sspKa ([2]; 60% (v/v) EtOH-water, 25 °C) | sspKa ([2]; 60% (v/v) EtOH-water, 37 °C) | wwpKa, 1/εACN - sspKa approach ([3]; 25 °C) | wwpKa, X ACN - sspKa approach ([3]; 25 °C) | wwpKa, 1/εACN - sspKa approach ([3]; 37 °C) | wwpKa, 1/εEtOH - sspKa approach ([3]; 25 °C) | wwpKa, X EtOH - sspKa approach ([3]; 25 °C) | wwpKa, 1/εEtOH - sspKa approach ([3]; 37 °C) | wwpKa, X EtOH - sspKa approach ([3]; 37 °C) | sspKa ([4]; 50% (v/v) ACN-water, 25 °C) | sspKa ([4]; 50% (v/v) ACN-water, 37 °C) | sspKa ([4]; 55% (v/v) ACN-water, 25 °C) | sspKa ([4]; 55% (v/v) ACN-water, 37 °C) | sspKa ([4]; 60% (v/v) ACN-water, 25 °C) | sspKa ([4]; 60% (v/v) ACN-water, 37 °C) | SMILES | logP [1] | other results |
| --- | --- | --- | --- | --- | --- | --- | --- | --- | --- | --- | --- | --- | --- | --- | --- | --- | --- | --- | --- | --- | --- |
| 9.185 (0.042) | 9.048 (0.024) | 8.978 (0.008) | 8.914 (0.053) | 8.808 (0.042) | 8.805 (0.066) | 10.361 | 10.468 | 10.120 | 10.302 | 10.407 | 9.766 | 9.836 | 9.265 (0.088) | 9.195 (0.036) | 9.096 (0.012) | 9.042 (0.082) | 8.867 (0.009) | 8.857 (0.082) | CN(C)CCCN1c2ccccc2Sc2ccccc21 [promazine] | 3.75 | wwpKa, X ACN - sspKa approach ([3]; 37 °C): 10.213; % Ionization value ([5]; pH 2.0): 100%; % Ionization value ([5]; pH 7.4): 99.635%; % Ionization value ([5]; pH 9.0): 87.269%; % Ionization value ([5]; pH 10.0): 40.670%; % Ionization value ([5]; pH 12.0): 0.681%; pKa, literature values ([6]; 37 °C): 9.11 ± 0.03 |
| 9.388 (0.012) | 9.329 (0.034) | 9.278 (0.016) | 9.243 (0.091) | 9.167 (0.034) | 9.118 (0.045) | 10.134 | 10.268 | 10.112 | 10.049 | 10.110 | 9.968 | 10.027 | 9.643 (0.078) | 9.470 (0.073) | 9.527 (0.038) | 9.329 (0.050) | 9.425 (0.062) | 9.202 (0.047) | CC(CN(C)C)CN1c2ccccc2Sc2ccccc21 (stereo not shown) [trimeprazine] | 4.11 | % Ionization value ([5]; pH 2.0): 100%; % Ionization value ([5]; pH 7.4): 99.765%; % Ionization value ([5]; pH 9.0): 91.410%; % Ionization value ([5]; pH 10.0): 51.554%; % Ionization value ([5]; pH 12.0): 1.053%; pKa, literature values ([6]; 25 °C, different methods (CE, potentiometry, UV-Vis)): 10.12 |
| 9.117 (0.011) ^a | 8.926 (0.082) | 8.999 (0.008) | 8.824 (0.009) | 8.900 (0.071) | 8.666 (0.031) | 9.980 | 10.056 | 9.924 | 9.761 | 9.821 | 9.716 | 9.787 | 9.167 (0.064) ^a | 9.108 (0.045) | 9.007 (0.064) | 8.947 (0.097) | 8.868 (0.075) | 8.806 (0.053) | CC(CN1c2ccccc2Sc2ccccc21)N(C)C (stereo not shown) [promethazine] | 3.14 | wwpKa, X ACN - sspKa approach ([3]; 37 °C): 10.006; % Ionization value ([5]; pH 2.0): 100%; % Ionization value ([5]; pH 7.4): 99.591%; % Ionization value ([5]; pH 9.0): 85.962%; % Ionization value ([5]; pH 10.0): 37.979%; % Ionization value ([5]; pH 12.0): 0.609% |
